# Literature values in PMC10343355, “Finding the Right Solvent: A Novel Screening Protocol for Identifying Environmentally Friendly and Cost-Effective Options for Benzenesulfonamide” (Molecules, 2023).
# Like-named read-outs stand apart in the source and are kept apart here.
# Set-up: method as in Li et al.
# Settings: ref Li et al., cited from earlier work
smiles,measurement,setting,value
"NS(=O)(=O)c1ccccc1 [BSA, Benzenesulfonamide]",log(x1)exp,"Acetonitrile, 0.00 °C",-1.46
same,log(x1)exp,"Acetonitrile, 6.00 °C",-1.40
same,log(x1)exp,"Acetonitrile, 10.30 °C",-1.35
same,log(x1)exp,"Acetonitrile, 15.80 °C",-1.30
same,log(x1)exp,"Acetonitrile, 20.10 °C",-1.25
same,log(x1)exp,"Acetonitrile, 25.70 °C",-1.19
same,log(x1)exp,"Acetonitrile, 30.00 °C",-1.14
same,log(x1)exp,"Acetonitrile, 35.00 °C",-1.09
same,log(x1)exp,"Acetonitrile, 40.00 °C",-1.03
same,log(x1)exp,"Acetonitrile, 44.50 °C",-0.98
same,log(x1)exp,"Acetonitrile, 50.00 °C",-0.93
same,log(x1)exp,"Cyclopentanone, 0.00 °C",-0.86
same,log(x1)exp,"Cyclopentanone, 6.00 °C",-0.84
same,log(x1)exp,"Cyclopentanone, 10.70 °C",-0.82
same,log(x1)exp,"Cyclopentanone, 16.00 °C",-0.80
same,log(x1)exp,"Cyclopentanone, 20.60 °C",-0.78
same,log(x1)exp,"Cyclopentanone, 26.00 °C",-0.75
same,log(x1)exp,"Cyclopentanone, 30.60 °C",-0.73
same,log(x1)exp,"Cyclopentanone, 36.00 °C",-0.70
same,log(x1)exp,"Cyclopentanone, 40.20 °C",-0.68
same,log(x1)exp,"Dichloromethane, 0.00 °C",-2.87
same,log(x1)exp,"Dichloromethane, 6.00 °C",-2.76
same,log(x1)exp,"Dichloromethane, 10.30 °C",-2.67
same,log(x1)exp,"Dichloromethane, 15.80 °C",-2.56
same,log(x1)exp,"Dichloromethane, 20.10 °C",-2.48
same,log(x1)exp,"Dichloromethane, 25.70 °C",-2.37
same,log(x1)exp,"Dichloromethane, 30.00 °C",-2.31
same,log(x1)exp,"Dichloromethane, 35.00 °C",-2.22
same,log(x1)exp,"Dichloromethane, 39.00 °C",-2.16
same,log(x1)exp,"Ethyl Acetate, 0.00 °C",-1.49
same,log(x1)exp,"Ethyl Acetate, 6.00 °C",-1.44
same,log(x1)exp,"Ethyl Acetate, 10.30 °C",-1.41
same,log(x1)exp,"Ethyl Acetate, 15.80 °C",-1.37
same,log(x1)exp,"Ethyl Acetate, 20.10 °C",-1.33
same,log(x1)exp,"Ethyl Acetate, 25.70 °C",-1.29
same,log(x1)exp,"Ethyl Acetate, 30.00 °C",-1.25
same,log(x1)exp,"Ethyl Acetate, 35.00 °C",-1.21
same,log(x1)exp,"Ethyl Acetate, 40.00 °C",-1.17
same,log(x1)exp,"Ethyl Acetate, 44.50 °C",-1.13
same,log(x1)exp,"Ethyl Acetate, 50.00 °C",-1.09
same,log(x1)exp,"Ethyl Formate, 0.00 °C",-1.74
same,log(x1)exp,"Ethyl Formate, 6.00 °C",-1.69
same,log(x1)exp,"Ethyl Formate, 10.30 °C",-1.64
same,log(x1)exp,"Ethyl Formate, 15.80 °C",-1.59
same,log(x1)exp,"Ethyl Formate, 20.10 °C",-1.54
same,log(x1)exp,"Ethyl Formate, 25.70 °C",-1.48
same,log(x1)exp,"Ethyl Formate, 30.00 °C",-1.44
same,log(x1)exp,"Ethyl Formate, 35.00 °C",-1.38
same,log(x1)exp,"Ethyl Formate, 40.00 °C",-1.33
same,log(x1)exp,"Ethyl Formate, 44.50 °C",-1.28
same,log(x1)exp,"Ethyl Formate, 50.00 °C",-1.22
same,log(x1)exp,"Isobutanol, 0.00 °C",-2.41
same,log(x1)exp,"Isobutanol, 6.00 °C",-2.35
same,log(x1)exp,"Isopentanol, 0.00 °C",-2.38
same,log(x1)exp,"Isopentanol, 6.00 °C",-2.31
same,log(x1)exp,"Isopentanol, 10.70 °C",-2.25
same,log(x1)exp,"Isopentanol, 16.00 °C",-2.17
same,log(x1)exp,"Isopentanol, 20.60 °C",-2.09
same,log(x1)exp,"Isopentanol, 26.00 °C",-2.00
same,log(x1)exp,"Isopentanol, 30.60 °C",-1.92
same,log(x1)exp,"Isopentanol, 36.00 °C",-1.83
same,log(x1)exp,"Isopentanol, 40.20 °C",-1.76
same,log(x1)exp,"Isopentanol, 46.00 °C",-1.68
same,log(x1)exp,"Isopentanol, 51.30 °C",-1.60
same,log(x1)exp,"Methanol, 0.00 °C",-1.53
same,log(x1)exp,"Methanol, 6.00 °C",-1.49
same,log(x1)exp,"Methanol, 10.30 °C",-1.45
same,log(x1)exp,"Methanol, 15.80 °C",-1.39
same,log(x1)exp,"Methanol, 20.10 °C",-1.34
same,log(x1)exp,"Methanol, 25.70 °C",-1.27
same,log(x1)exp,"Methanol, 30.00 °C",-1.21
same,log(x1)exp,"Methanol, 40.00 °C",-1.09
same,log(x1)exp,"Methanol, 44.50 °C",-1.03
same,log(x1)exp,"Methanol, 50.00 °C",-0.97
same,log(x1)exp,"n-Butanol, 46.00 °C",-1.56
same,log(x1)exp,"n-Butanol, 51.30 °C",-1.49
same,log(x1)exp,"n-Pentanol, 36.00 °C",-1.78
same,log(x1)exp,"n-Pentanol, 40.20 °C",-1.73
same,log(x1)exp,"n-Pentanol, 46.00 °C",-1.63
same,log(x1)exp,"n-Pentanol, 51.30 °C",-1.56
same,log(x1)exp,"n-Propanol, 0.00 °C",-2.09
same,log(x1)exp,"n-Propanol, 6.00 °C",-2.04
same,log(x1)exp,"n-Propanol, 10.70 °C",-1.99
same,log(x1)exp,"n-Propanol, 16.00 °C",-1.91
same,log(x1)exp,"n-Propanol, 20.60 °C",-1.84
same,log(x1)exp,"n-Propanol, 26.00 °C",-1.76
same,log(x1)exp,"n-Propanol, 30.60 °C",-1.68
same,log(x1)exp,"n-Propanol, 36.00 °C",-1.60
same,log(x1)exp,"n-Propanol, 40.20 °C",-1.53
same,log(x1)exp,"n-Propanol, 46.00 °C",-1.44
same,log(x1)exp,"n-Propanol, 51.30 °C",-1.37
same,log(x1)exp,"solvent Isobutanol, T 10.70 °C, mole fraction solubility",-2.27
same,log(x1)exp,"solvent Isobutanol, T 16.00 °C, mole fraction solubility",-2.18
same,log(x1)exp,"solvent Isobutanol, T 20.60 °C, mole fraction solubility",-2.09
same,log(x1)exp,"solvent Isobutanol, T 26.00 °C, mole fraction solubility",-2.00
same,log(x1)exp,"solvent Isobutanol, T 30.60 °C, mole fraction solubility",-1.92
same,log(x1)exp,"solvent Isobutanol, T 36.00 °C, mole fraction solubility",-1.83
same,log(x1)exp,"solvent Isobutanol, T 40.20 °C, mole fraction solubility",-1.75
same,log(x1)exp,"solvent Isobutanol, T 46.00 °C, mole fraction solubility",-1.67
same,log(x1)exp,"solvent Isobutanol, T 51.30 °C, mole fraction solubility",-1.59
